Experimental data taken from patent US20180015100A1, “COMBINATION PRODUCTS FOR THE TREATMENT OF BACTERIAL INFECTIONS AND METHODS OF PRODUCING OR DOSING OF SAME” (priority 2016, published 2018).
Values after ≈ are worked out from the molar mass of the structure shown. Read-outs that look alike come from different tables or passages of the source.

Key:
[1] = system: 385 Escherichia coli and 126 Klebsiella pneumoniae isolates; experiment: MIC, MIC50 and MIC90 by reference broth microdilution against 511 UTI/bloodstream isolates (USA and Europe 2014-2015); type: cell-based; conditions: 511 isolates; for MIC90: read-out: MIC90
[2] = system: E. coli clinical isolate expressing the ESBL CTX-M-15; type: in vivo, mouse; conditions: 4 mg/kg, q4 hr
[3] = system: ESBL Klebsiella pneumoniae isolates; experiment: Killing kinetics (time-kill); type: cell-based; conditions: 8X MIC
[4] = system: ESBL Escherichia coli isolates; experiment: Killing kinetics (time-kill); type: cell-based; conditions: 8X MIC
[5] = system: ESBL Klebsiella pneumoniae isolates; experiment: MIC against isolates analyzed in time-kill experiments; type: cell-based
[6] = system: Escherichia coli isolates with an ESBL-phenotype; experiment: In vitro MIC90 of a panel of approved antibiotics, US surveillance program; type: cell-based
[7] = system: ESBL Escherichia coli isolates; experiment: MIC against isolates analyzed in time-kill experiments; type: cell-based
[8] = system: Citrobacter freundii isolates; experiment: MIC of cephalosporins alone or with clavulanate/tazobactam; type: cell-based; conditions: clavulanate 2:1, tazobactam 4 μg/mL
[9] = system: Klebsiella oxytoca isolates; experiment: as above; type: cell-based; conditions: clavulanate 2:1, tazobactam 4 μg/mL
[10] = system: Escherichia coli isolates; experiment: as above; type: cell-based; conditions: clavulanate 2:1, tazobactam 4 μg/mL
[11] = system: Enterobacter cloacae isolates; experiment: as above; type: cell-based; conditions: clavulanate 2:1, tazobactam 4 μg/mL
[12] = system: Enterobacter aerogenes isolates; experiment: as above; type: cell-based; conditions: Klebsiella aerogenes, clavulanate 2:1, tazobactam 4 μg/mL
[13] = system: Klebsiella pneumoniae isolates; experiment: as above; type: cell-based; conditions: clavulanate 2:1, tazobactam 4 μg/mL
[14] = clinical; conditions: human, in vivo
Experimental: The twice daily divided dose of study drug was administered approximately 12 hours apart. All subjects randomized to placebo received placebo oral capsules that were identical to study drug capsules and given according to the same dosing schedule and same quantity of capsules as subjects randomized to receive ceftibuten and clavulanate concurrently. All SDs, as well as the first daily dose of the MD period on […] were given while the subject was fasted. […] In addition, blood samples for assessment of trough (pre-dose) concentrations were collected on day 7, day 8, day 9, and alternate days thereafter through study day 17. […] Peak concentration (Cmax), time at which Cmax was observed (Tmax), area under the concentration-time curve to infinity (AUCinf), percent coefficient of variation (% CV), elimination half-life (T1/2), apparent total clearance of the drug from plasma after oral administration (CL/F), and apparent volume of distribution during terminal phase after non-intravenous administration (Vz/F) were determined. […] Similar to above, six subjects were randomized to receive active drug and two were randomized to receive placebo. […] Safety, tolerability and PK were assessed as described above.

[15] = Escherichia coli, E. coli (n = 124), ESBL-phenotype, read-out: MIC90
[16] = E. coli (n = 124), ESBL-phenotype

With `CC1(C)S[C@@H]2[C@H](/N=C/N3CCCCCC3)C(=O)N2[C@H]1C(=O)O` [Mecillinam] the MIC50 [1] was 2 µg/mL (≈ 6.15 µM) and the MIC90 [1] was > 32 µg/mL.

With `C[C@@H](O)[C@H]1C(=O)N2C(C(=O)O)=C(S[C@@H]3CN[C@H](C(=O)N(C)C)C3)[C@H](C)[C@H]12` [Meropenem, meropenem] the “bacterial CFU, bladder” value [2] was 3.75 log10 CFU, the “bacterial CFU, kidneys” value [2] was 3.11 log10 CFU and the “bacterial CFU, urine” value [2] was 3.25 log10 CFU. For the same compound, the “Change in Log10 CFU/mL From Inoculum (0 hr)” value ([3]; AKPN1159, 2 h) was −2.64 Log10 CFU/mL, the “Change in Log10 CFU/mL From Inoculum (0 hr)” value ([3]; AKPN1159, 4 h) was −4.16 Log10 CFU/mL and the “Change in Log10 CFU/mL From Inoculum (0 hr)” value ([3]; AKPN1159, 6 h) was −4.73 Log10 CFU/mL. For the same compound, the “Change in Log10 CFU/mL From Inoculum (0 hr)” value ([3]; AKPN1159, 24 h) was −6.33 Log10 CFU/mL, the “Change in Log10 CFU/mL From Inoculum (0 hr)” value ([3]; AKPN1162, 2 h) was −3.01 Log10 CFU/mL and the “Change in Log10 CFU/mL From Inoculum (0 hr)” value ([3]; AKPN1162, 4 h) was −3.58 Log10 CFU/mL. The “Change in Log10 CFU/mL From Inoculum (0 hr)” value ([3]; AKPN1162, 6 h) was −3.66 Log10 CFU/mL, the “Change in Log10 CFU/mL From Inoculum (0 hr)” value ([3]; AKPN1162, 24 h) was −6.48 Log10 CFU/mL and the “Change in Log10 CFU/mL From Inoculum (0 hr)” value ([4]; AECO1156, 2 h) was −3.41 Log10 CFU/mL. For the same compound, the “Change in Log10 CFU/mL From Inoculum (0 hr)” value ([4]; AECO1156, 4 h) was −4.08 Log10 CFU/mL, the “Change in Log10 CFU/mL From Inoculum (0 hr)” value ([4]; AECO1156, 6 h) was −5.69 Log10 CFU/mL and the “Change in Log10 CFU/mL From Inoculum (0 hr)” value ([4]; AECO1156, 24 h) was −5.69 Log10 CFU/mL. The “Change in Log10 CFU/mL From Inoculum (0 hr)” value ([4]; AECO1157, 2 h) was −3.49 Log10 CFU/mL, the “Change in Log10 CFU/mL From Inoculum (0 hr)” value ([4]; AECO1157, 4 h) was −4.98 Log10 CFU/mL and the “Change in Log10 CFU/mL From Inoculum (0 hr)” value ([4]; AECO1157, 6 h) was −4.38 Log10 CFU/mL. The “Change in Log10 CFU/mL From Inoculum (0 hr)” value ([4]; AECO1157, 24 h) was −5.98 Log10 CFU/mL, the “Change in Log10 CFU/mL From Inoculum (0 hr)” value ([4]; AECO1162, 2 h) was −2.91 Log10 CFU/mL and the “Change in Log10 CFU/mL From Inoculum (0 hr)” value ([4]; AECO1162, 4 h) was −3.42 Log10 CFU/mL. For the same compound, the “Change in Log10 CFU/mL From Inoculum (0 hr)” value ([4]; AECO1162, 6 h) was −4.39 Log10 CFU/mL, the “Change in Log10 CFU/mL From Inoculum (0 hr)” value ([4]; AECO1162, 24 h) was −6.08 Log10 CFU/mL and the “Change in Log10 CFU/mL From Inoculum (0 hr)” value ([4]; AECO1166, 2 h) was −4.17 Log10 CFU/mL. The “Change in Log10 CFU/mL From Inoculum (0 hr)” value ([4]; AECO1166, 4 h) was −6.08 Log10 CFU/mL, the “Change in Log10 CFU/mL From Inoculum (0 hr)” value ([4]; AECO1166, 6 h) was −6.08 Log10 CFU/mL and the “Change in Log10 CFU/mL From Inoculum (0 hr)” value ([4]; AECO1166, 24 h) was −6.08 Log10 CFU/mL. The MIC ([5]; AKP1162 (SHV-12, CTX-M-15)) was 0.06 µg/mL (≈ 0.156 µM), the MIC ([5]; AKPN1159 (SHV-12)) was 0.03 µg/mL (≈ 0.0782 µM) and the MIC90 [6, 15] was 0.03 µg/mL (≈ 0.0782 µM). For the same compound, the MIC50 [1] was 0.03 µg/mL (≈ 0.0782 µM), the “EUCAST % I” value ([1]; EUCAST 2016 criteria) was 3.3% and the MIC90 [1] was 0.12 µg/mL (≈ 0.313 µM). It also gave an MIC ([7]; AECO1156 (CTXM-15, TEM-OSBL)) of 0.03 µg/mL (≈ 0.0782 µM), an MIC ([7]; AECO1157 (CTXM-15, TEM-OSBL)) of 0.03 µg/mL (≈ 0.0782 µM) and an MIC ([7]; AECO1162 (CTX-M-14)) of 0.03 µg/mL (≈ 0.0782 µM). It also gave an MIC ([7]; AECO1166 (SHV-12)) of 0.016 µg/mL (≈ 0.0417 µM).

With `O=C1CN(/N=C/c2ccc([N+](=O)[O-])o2)C(=O)N1` [Nitrofurantoin] the MIC50 [1] was 16 µg/mL (≈ 67.2 µM) and the MIC90 [1] was 256 µg/mL (≈ 1070 µM).

For `C[C@]1(Cn2ccnn2)[C@H](C(=O)O)N2C(=O)C[C@H]2S1(=O)=O` [Tazobactam, tazobactam], the MIC ([8]; ACFR1034 (CTX-M-15, TEM-OSBL)) was > 64 µg/mL, the MIC ([8]; ACFR1035 (CTX-M-3, TEM-OSBL)) was > 64 µg/mL and the MIC ([9]; AKOX1005 (SHV-2, TEM-1, DHA-1)) was > 64 µg/mL. For the same compound, the MIC ([9]; AKOX1009 (CTX-M-15)) was > 64 µg/mL, the MIC ([10]; AECO001 (no ESBL)) was > 64 µg/mL and the MIC ([10]; AECO1078 (CTX-M-15)) was > 64 µg/mL. For the same compound, the MIC ([10]; AECO1147 (CTX-M-15)) was > 64 µg/mL, the MIC ([10]; AECO1157 (CTX-M-15, TEM-OSBL)) was > 64 µg/mL and the MIC ([10]; AECO1159 (CTX-M-15)) was > 64 µg/mL. The MIC ([10]; AECO1169 (CTX-M-1, TEM-OSBL)) was > 64 µg/mL, the MIC ([10]; AECO1172 (CTX-M-14)) was > 64 µg/mL and the MIC ([11]; AECL1065 (CTX-M-15)) was > 64 µg/mL. For the same compound, the MIC ([11]; AECL1067 (CTX-M-3)) was > 64 µg/mL, the MIC ([12]; AEAE1027 (CTX-M-14)) was > 64 µg/mL and the MIC ([12]; AEAE1029 (CTX-M-15)) was > 64 µg/mL. The MIC ([13]; AKPN1159 (SHV-12)) was > 64 µg/mL, the MIC ([13]; AKPN1161 (SHV-7)) was > 64 µg/mL and the MIC ([13]; AKPN1162 (CTX-M-15, SHV-12)) was > 64 µg/mL. The MIC ([13]; AKPN1166 (CTX-M-14, SHV-12)) was > 64 µg/mL and the MIC ([13]; AKPN1167 (SHV-2)) was > 64 µg/mL.

`CN(C)c1cc(NC(=O)CNC(C)(C)C)c(O)c2c1C[C@H]1C[C@H]3[C@H](N(C)C)C(O)=C(C(N)=O)C(=O)[C@@]3(O)C(O)=C1C2=O` [Tigecycline] showed an MIC90 ([6]; Escherichia coli) of 0.25 µg/mL (≈ 0.427 µM).

For `NC[C@H]1O[C@H](O[C@H]2[C@H](O)[C@@H](O[C@H]3O[C@H](CO)[C@@H](O)[C@H](N)[C@H]3O)[C@H](N)C[C@@H]2N)[C@H](N)C[C@@H]1O` [Tobramycin], the MIC90 [6, 15] was > 8 µg/mL.

With `NCC(=O)CCO` [amino ketone metabolite of clavulanate] the “% of parent exposure” value [14] was “approximately 8.5%”.

With Colistin the MIC90 [6, 16] was 0.25 µg/mL.

In the case of Gentamicin, the MIC90 [6, 16] is reported as >8 µg/mL.
